Reference: US8658652B2, “Antifolate combinations” (Chelsea Therapeutics, Inc., priority 2010, dated 2014)

Assays:
Assay type in all cases: in vivo
[1] = Body weight gain in 17 day rat developing type II collagen arthritis test; conditions: vs vehicle treated disease controls
Excerpt: (§1) Female Lewis rats (n=74) weighing 140-161 grams (mean approximate weight=148 g) on day 0 of the study were obtained from Charles River Laboratories, Inc., Wilmington, Mass. Animals were identified by a distinct number delineating group and animal number. After randomization, all cages were labeled with protocol number, group number, and animal number with appropriate color-coding.
Animals were anesthetized with Isoflurane and received subcutaneous/intradermal (SC/ID) injections with […] of Freund's Incomplete Adjuvant (Difco, Detroit, Mich.) containing 2 mg/ml bovine type II collagen (Elastin Products, Owensville, Mo.) at the base of the tail and two sites on the back on days 0 and 6. Dosing was initiated on day 0 of the study (prior to boosting procedures) and continued daily (QD at 24 hour intervals) through day 16. Animals were terminated on day 17. […]
Clinical data for ankle joint diameter were analyzed by determining the area under the curve (AUC). […] Means for each group were determined and % inhibition from arthritis controls was calculated by comparing values for treated and […] animals. Data were analyzed using a Student's t-test or Mann-Whitney U test (non-parametric). If applicable, data were analyzed again, across all groups, using a one-way analysis of variance (1-way ANOVA) or Kruskal-Wallis test (non-parametric), along with the appropriate multiple comparison post-test. […]

[2] = test system: developing type II collagen arthritis in rats; assay: Ankle diameter (caliper) in 17 day rat developing type II collagen arthritis test; conditions: for Daily ankle diameter reduced toward normal, days of significance: vs vehicle controls; for Ankle diameter AUC reduction toward normal: vs vehicle treated disease controls
Excerpt: as §1
(§2) Animals were anesthetized with Isoflurane and received subcutaneous/intradermal (SC/ID) injections with […] of Freund's Incomplete Adjuvant (Difco, Detroit, Mich.) containing 2 mg/ml bovine type II collagen (Elastin Products, Owensville, Mo.) at the base of the tail and two sites on the back on days 0 and 6. Dosing was initiated on day 0 of the study (prior to boosting procedures) and continued daily (QD at 24 hour intervals) through day 16. Animals were terminated on day 17. The experimental groups were as follows in Table 1, wherein “CH vehicle” means the vehicle used to deliver the compound CH-4051 without the inclusion of the active compound, and “MTX vehicle” means the vehicle used to deliver methotrexate without the inclusion of the active compound. The terms “QD” and “PO” have the standard meanings in the art—i.e., “once daily” and “by mouth”, respectively.
Rats were weighed on days 0, 3, 6, and 9-17 of the study, and caliper measurements of ankles were taken every day beginning on day 9 (or day 0 of arthritis). Ankle caliper measurements were made with Digitrix II micrometer (Fowler & NSK). Baseline measurements were taken using one ankle with values rounded to one-thousandth of an inch. Measurements were confirmed as clinically normal (0.260-0.264 inches) by comparison with historical values for rats based on a range of body weights. Baseline measurements were then applied to both ankles, and these values remained with the animal so long as the ankle was clinically normal with good definition of all the ankle bones and no evidence of inflammation.
Clinical data for ankle joint diameter were analyzed by determining the area under the curve (AUC). […] Means for each group were determined and % inhibition from arthritis controls was calculated by comparing values for treated and […] animals. Data were analyzed using a Student's t-test or Mann-Whitney U test (non-parametric). If applicable, data were analyzed again, across all groups, using a one-way analysis of variance (1-way ANOVA) or Kruskal-Wallis test (non-parametric), along with the appropriate multiple comparison post-test. […] Percent inhibition was calculated using the following formula: % Change=B/A×100, wherein A is the mean normal (mean disease control), and B is the mean treated (mean disease control). […]

[3] = test system: developing type II collagen arthritis in rats; assay: Ankle histopathology in 17 day rat developing type II collagen arthritis test; conditions: for Ankle histopathology, reduction of summed scores: vs vehicle treated disease controls
Excerpt: as §1, §2
(§3) After final body weight measurement on day 17, animals were anesthetized for terminal serum collection (retained), and then euthanized for tissue collection. Hind paws were transected at the level of the medial and lateral malleolus, weighed, and were placed in formalin with knees for potential microscopy. Livers, spleen, and thymus were removed, trimmed, weighed, and discarded.
(§4) Preserved and decalcified (5% formic acid) ankle and knee joints were cut in half longitudinally (ankles) or in the frontal plane (knees), processed through graded alcohols and a clearing agent, infiltrated and embedded in paraffin, sectioned, and stained with Toluidine Blue (T. blue) by Bolder BioPATH, Inc. associated personnel (HistoTox Labs, Inc.). Tissues from all animals were examined microscopically by a board certified veterinary pathologist, and observations were entered into a computer-assisted data retrieval system.
(§5) Clinical data for ankle joint diameter were analyzed by determining the area under the curve (AUC). For calculation of AUC, the daily measurement of ankle joints (using a caliper) for each rat were entered into a spreadsheet, and the area between the treatment days after the onset of disease to the termination day was computed. Means for each group were determined and % inhibition from arthritis controls was calculated by comparing values for treated and […] animals. Data were analyzed using a Student's t-test or Mann-Whitney U test (non-parametric). If applicable, data were analyzed again, across all groups, using a one-way analysis of variance (1-way ANOVA) or Kruskal-Wallis test (non-parametric), along with the appropriate multiple comparison post-test. ANOVA was performed using Prism 5.0c software (GraphPad Software, Inc.). Significance for all tests was set at p<0.05. Percent inhibition was calculated using the following formula: […]. The results of the testing are described below in relation to the various, referenced figures. In all cases, n=4 for Normal Controls, and n=10 for the treatment group.

[4] = test system: developing type II collagen arthritis in rats; assay: Knee histopathology in 17 day rat developing type II collagen arthritis test
Excerpt: as §1, §2, §3, §4, §5

[5] = test system: developing type II collagen arthritis in rats; assay: Overall effect on developing arthritis parameters, rat type II collagen arthritis; conditions: for Effect on arthritis parameters: alone
Excerpt: as §1, §2, §5

[6] = test system: developing type II collagen arthritis in rats; assay: Knee histopathology in 17 day rat developing type II collagen arthritis test; conditions: 0.2 mg/kg MTX 2X/week PO (Group 6); vs vehicle controls
[7] = 5 mg/kg CH-4051 daily PO (Group 7)
[8] = 2.5 mg/kg CH-4051 alone (Group 4), FIG. 11
[9] = 5 mg/kg CH-4051 alone (Group 7), FIG. 14
[10] = 2.5 mg/kg CH-4051 alone (Group 4), FIG. 19
[11] = 0.2 mg/kg MTX 2X/week PO (Group 6)
[12] = 0.1 mg/kg methotrexate alone (Group 3), FIG. 10
[13] = 0.2 mg/kg methotrexate alone (Group 6), FIG. 13
[14] = 0.1 mg/kg methotrexate alone (Group 3), FIG. 18

Compound: C=C(C[C@H](NC(=O)c1ccc(CCc2ccc3nc(N)nc(N)c3c2)cc1)C(=O)O)C(=O)O [CH-4051, (S)-2-{4-[2-(2,4-diamino-quinazolin-6-yl)-ethyl]-benzoylamino}-4-methylene-pentanedioic acid]
- Body weight gain increase toward normal [1, 7]: 84%
- Daily ankle diameter reduced toward normal, days of significance [2, 7]: significant at days 10-17
- Ankle diameter AUC reduction toward normal [2, 7]: 81%
- Ankle cartilage damage, photomicrograph of approximate mean summed score [3, 8]: mild
- Ankle inflammation, photomicrograph of approximate mean summed score [3, 8]: marked
- Ankle pannus, photomicrograph of approximate mean summed score [3, 8]: mild
- Ankle cartilage damage, photomicrograph of approximate mean summed score [3, 9]: minimal
- Ankle inflammation, photomicrograph of approximate mean summed score [3, 9]: mild
- Ankle pannus, photomicrograph of approximate mean summed score [3, 9]: minimal
- Ankle histopathology, reduction of summed scores [3, 7]: 75%
- Knee bone resorption, photomicrograph of highest summed score in group [4, 10]: bone resorption
- Knee cartilage damage, photomicrograph of highest summed score in group [4, 10]: moderate
- Knee inflammation, photomicrograph of highest summed score in group [4, 10]: severe
- Knee pannus, photomicrograph of highest summed score in group [4, 10]: mild
- Knee inflammation, photomicrograph of highest summed score in group ([4]; 5 mg/kg CH-4051 alone (Group 7), FIG. 22): mild
- Knee histopathology, reduction of summed scores ([4]; 5 mg/kg CH-4051 daily PO (Group 7), vs vehicle treated disease controls): 92%
- Effect on developing arthritis parameters ([5]; 2.5 mg/kg CH-4051 (daily doses)): only minimal, non-significant effects
- Effect on arthritis parameters ([5]; 5 mg/kg CH-4051 per day): good inhibition of all arthritis parameters

Compound: CN(Cc1cnc2nc(N)nc(N)c2n1)c1ccc(C(=O)N[C@@H](CCC(=O)O)C(=O)O)cc1 [MTX, methotrexate]
- Body weight gain increase toward normal [1, 11]: 68%
- Daily ankle diameter reduced toward normal, days of significance ([2]; 0.1 mg/kg MTX 2X/week PO (Group 3)): significant at day 11
- Ankle diameter AUC reduction toward normal [2, 11]: 72%
- Ankle histopathology, reduction of summed scores ([3]; 0.1 mg/kg MTX—Group 6 (so in the source)): 59%
- Ankle cartilage damage, photomicrograph of approximate mean summed score [3, 12]: mild
- Ankle inflammation, photomicrograph of approximate mean summed score [3, 12]: marked
- Ankle pannus, photomicrograph of approximate mean summed score [3, 12]: minimal
- Ankle cartilage damage, photomicrograph of approximate mean summed score [3, 13]: minimal
- Ankle inflammation, photomicrograph of approximate mean summed score [3, 13]: mild
- Ankle pannus, photomicrograph of approximate mean summed score [3, 13]: minimal
- Knee bone resorption, photomicrograph of highest summed score in group [4, 14]: bone resorption
- Knee cartilage damage, photomicrograph of highest summed score in group [4, 14]: mild
- Knee inflammation, photomicrograph of highest summed score in group [4, 14]: severe
- Knee pannus, photomicrograph of highest summed score in group [4, 14]: mild
- Knee inflammation, photomicrograph of highest summed score in group ([4]; 0.2 mg/kg methotrexate alone (Group 6), FIG. 21): mild
- Effect on developing arthritis parameters ([5]; 0.1 mg/kg MTX (dosed 2 times per week)): only minimal, non-significant effects
- Effect on arthritis parameters ([5]; 0.2 mg/kg MTX twice weekly): good inhibition of all arthritis parameters
- Knee bone resorption score reduction [6]: 95%
- Knee cartilage damage score reduction [6]: 91%
- Knee pannus score reduction [6]: 91%
